# Bridge positions count the residues as written; N and C are the ends. Peptide text beside a SMILES is read from it.
# Tests used:
# Assay type in all cases: cell-based
# [1] = test system: sodium channel currents in rat DRG neurons; settings: 10 μM; n = 3
# [2] = test system: potassium channel currents in rat DRG neurons; settings: 10 μM
# [3] = test system: calcium channel currents in rat DRG neurons
# human Cav2.2 = settings: 10 μM; SD
compound,measurement,setting,value
"CSCC[C@@H]1NC(=O)[C@H](CCC(N)=O)NC(=O)[C@@H]2CSSC[C@@H](C(=O)N3CCC[C@H]3C(N)=O)NC(=O)[C@@H]3CSSC[C@H](NC(=O)[C@@H](NC(=O)CNC(=O)[C@@H](N)CCC(N)=O)CSSC[C@H](NC(=O)[C@H](C)NC(=O)[C@H](C)NC1=O)C(=O)N[C@@H](CC(N)=O)C(=O)N1CCC[C@H]1C(=O)N1CCC[C@H]1C(=O)N1CCC[C@H]1C(=O)N3)C(=O)N1CCC[C@H]1C(=O)N1CCC[C@H]1C(=O)NCC(=O)N[C@@H](C(C)C)C(=O)N2 [Vr3a] (H-QGCCPPGVCQMAACNPPPCCP-NH2; disulfide 3-14, 4-19, 9-20)",effect on the peak of the sodium currents,[1],no effects
same,shift in the activation curve of sodium channels (change of V50),[1],~ 10 mV
same,shift in the current-voltage relationship of sodium channels,[1],~ 10 mV
same,shift in the inactivation curve of sodium channels (change of V50),[1],~ 5 mV
same,"shift in the recovery curve, delaying sodium channel recovery",[1],~ 0.002 second
same,increase of the peak potassium currents,[2]; SD,19.61 ± 5.12%
same,shift in the current-voltage relationship of potassium channels,[2]; n = 3,do not induce a shift
same,inhibition of the peak calcium currents,"[3]; 10 μM, SD",31.26% ± 4.53%
same,shift in the current-voltage relationship of calcium channels,"[3]; 10 μM, n = 3",do not induce a shift
same,IC50,[3]; SD,19.3 ± 4.32 µM
same,inhibition of human Cav2.2 currents,human Cav2.2,12.86% ± 4.93%

# Reference: paper PMC8230863 (The Journal of Venomous Animals and Toxins Including …, 2021)
